Reference: publication PMC8877008, “Synthesis and Structure–Activity Relationship Studies of Benzimidazole-4,7-dione-Based P2X3 Receptor Antagonists as Novel Anti-Nociceptive Agents” (Molecules, 2022)

How the values were obtained:
[1] = Metabolic stability in microsomal fraction, rat; assay type: in vitro ADME; conditions: Table 1
hP2X3R = target: T1, hP2X3R (Homo sapiens, UniProt P56373); test: Calcium influx (Fluo-4) evoked by α,β-meATP in HEK293 cells stably expressing hP2X3R; assay type: cell-based; conditions: for IC50: antagonistic activity, HEK293 cells expressing hP2X3R, agonist at EC70; for Decrease of P2X3R antagonistic activity compared with KCB-77033: relative to hit compound KCB-77033
T1 construct: expressed in transfected cells
T1 sequence (P56373 1-397): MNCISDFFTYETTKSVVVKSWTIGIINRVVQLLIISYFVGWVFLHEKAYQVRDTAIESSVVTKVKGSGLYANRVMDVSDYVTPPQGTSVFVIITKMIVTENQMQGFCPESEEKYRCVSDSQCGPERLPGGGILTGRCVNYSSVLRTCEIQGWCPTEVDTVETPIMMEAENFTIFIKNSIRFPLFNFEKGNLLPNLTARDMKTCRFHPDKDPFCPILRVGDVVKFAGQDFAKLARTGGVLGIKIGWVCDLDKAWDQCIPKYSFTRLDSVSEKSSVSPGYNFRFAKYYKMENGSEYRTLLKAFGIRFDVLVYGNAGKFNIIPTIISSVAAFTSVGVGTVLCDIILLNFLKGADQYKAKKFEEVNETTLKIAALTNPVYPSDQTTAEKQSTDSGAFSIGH
Description: For the evaluation of P2XR activities, a cell-based assay system was employed to measure the level of fluorescence emission, based on Fluo-4 dye, during Ca^2+ influx evoked by αβmeATP in HEK293 cells stably expressing hP2X2/3R and hP2X3R. The library containing 8364 representative compounds for the screening of antagonistic activity was provided by the Korea Chemical Bank. The antagonistic activities were evaluated in the presence of P2X3R agonist of the concentration for EC70 value (200–250 nM for hP2X3R and 1–4 μM for hP2X2/3R highly expressed cell lines), and AF353 was used as the positive control antagonist for comparison. For the first round of screening, a single concentration (25 μM) of each library compound was tested to identify initial hit compounds, which were subsequently validated using both concentrations of 25 and 10 μM. Using a cut-off threshold of higher than 50% antagonistic activity and after confirming dose-dependency, 12 main hit compounds were selected.
3.4. Cell-Based Assay: Measurement of Calcium Influx by Fluorescence-Based Fluo-4 Dye Uptake in HEK293 Cells Expressing hP2X2/3 and hP2X3 Receptors
Human P2X3-expressing HEK293 cells were grown in DMEM supplemented with 10% fetal bovine serum and 1% antibiotic–antimycotic as a monolayer culture at 37 °C in a humidified atmosphere of 5% CO2. The 96-well black plates used in the experiments were prepared by coating them with 1× poly-D-lysine (A3890401, Thermo-Fisher Scientific Korea, Seoul, South Korea). An aliquot of 40 μL 1× poly-D-lysine was used to treat each of the wells in a flat orientation. After leaving the plates for at least 4 h to absorb the poly-D-lysine, the plates were allowed to dry for at least 6 h. The DMEM used in the culture of HEK293 cells was removed from the dish, followed by application of 3 mL 1× PBS for washing. Removal of 1× PBS was followed by application of 1 mL trypsin/EDTA, and the cells were collected by centrifugation at 1200 rpm for 2 min. The supernatant was removed, and 1 mL fresh DMEM added. The cells were resuspended in media and plates prepared with 4.8 × 10^4 cells/well in 56 μL/well. After 18 h of cell culture in the 96-well black plate, 56 μL of Fluo-4 dye (Fluo-4 Direct^TM Calcium Assay Kit, F10471, Invitrogen, Thermo-Fisher Scientific Korea, Seoul, South Korea) was added to each well, prepared according to the manufacturer’s protocol, and incubated for 50 min~1 h under culturing conditions. Then, 12.4 μL of the appropriate compound solution was added to each well, and the positive control was AF353 (A1612, Sigma Aldrich Korea, Seoul, South Korea) and the negative control was 5% DMSO. Plates were incubated at room temperature and sealed to avoid interference from light for 50 min~1 h. Flexstation 3 and its software provided by Molecular Devices was used for the measurement of fluorescence in real time of treatments using prepared α,β-meATP (M6517, Sigma Aldrich) solution to evoke calcium influx and increased cell membrane potential.
For the analysis of antagonistic activities, all data were calculated by Origin Pro 9.1 software provided by Originlab and the fitting of graphs was proceeded by the growth/sigmoidal and hill1 process within no weights for data selections. For the analysis of the behavioral assessments of pain models, all data are expressed as mean ± SEM. The dose–response data are presented as percentages of the maximum possible effect. Statistical significance was analyzed by independent t-test. The criterion for statistical significance was p < 0.05. The statistical analysis was performed using SPSS 25.0 software (IBM Corp., Armonk, NY, USA).

[2] = Metabolic stability in microsomal fraction, mouse; assay type: in vitro ADME; conditions: mouse; Table 1
[3] = Metabolic stability in microsomal fraction, human; assay type: in vitro ADME; conditions: Table 1

IC50 (hP2X3R) [nM]	Compound	other results
1030 ± 73	Cc1nc2c([nH]1)C(=O)C(Cl)=C(Nc1ccc(F)c(F)c1)C2=O [KCB-77033]	Metabolic Stability Rat (%) [1]: 3.4 ± 0.1%; Metabolic Stability Mouse (%) [2]: 5.2 ± 1.6%; Metabolic Stability Human (%) [3]: 9.0 ± 1.5%
3720 ± 731	Cc1nc2c([nH]1)C(=O)C(Cl)=C(Nc1ccc(Cl)cc1)C2=O [10b, 6-Chloro-5-((4-chlorophenyl)amino)-2-methyl-1H-benzo[d]imidazole-4,7-dione]	Decrease of P2X3R antagonistic activity compared with KCB-77033 (hP2X3R): 4–5 fold
505 ± 51	O=C1C(NC2CCN(C(=O)c3ccc(F)c(Cl)c3)CC2)=C(Cl)C(=O)c2[nH]c(C(F)(F)F)nc21 [14i, 6-Chloro-5-((1-(3-chloro-4-fluorobenzoyl)piperidin-4-yl)amino)-2-(trifluoromethyl)-1H-benzo[d]imidazole-4,7-dione]	–
774 ± 166	O=C1C(Nc2ccc(Cl)cc2I)=C(Cl)C(=O)c2[nH]c(C(F)(F)F)nc21 [11k, 6-Chloro-5-((4-chloro-2-iodophenyl)amino)-2-(trifluoromethyl)-1H-benzo[d]imidazole-4,7-dione]	–
541 ± 103	O=C1C(Nc2ccc(Cl)c(F)c2)=C(Cl)C(=O)c2[nH]c(C(F)(F)F)nc21 [11h, 6-Chloro-5-((4-chloro-3-fluorophenyl)amino)-2-(trifluoromethyl)-1H-benzo[d]imidazole-4,7-dione]	–
4440 ± 480	N#Cc1ccc(C(=O)N2CCC(NC3=C(Cl)C(=O)c4[nH]c(C(F)(F)F)nc4C3=O)CC2)cc1 [14j, 4-(4-((6-Chloro-4,7-dioxo-2-(trifluoromethyl)-4,7-dihydro-1H-benzo[d]imidazol-5-yl)amino)piperidine-1-carbonyl)benzonitrile]	–
979 ± 104	COC(=O)N1CCC(NC2=C(Cl)C(=O)c3[nH]c(C(F)(F)F)nc3C2=O)CC1 [14a, Methyl-4-((6-chloro-4,7-dioxo-2-(trifluoromethyl)-4,7-dihydro-1H-benzo[d]imidazol-5-yl)amino)piperidine-1-carboxylate]	–
834 ± 117	O=C1C(Nc2ccc(F)c(F)c2)=C(Cl)C(=O)c2[nH]c(C(F)(F)F)nc21 [11c, 6-Chloro-5-((3,4-difluorophenyl)amino)-2-(trifluoromethyl)-1H-benzo[d]imidazole-4,7-dione]	–
703 ± 96	O=C1C(Nc2ccc(F)c(Cl)c2)=C(Cl)C(=O)c2[nH]c(C(F)(F)F)nc21 [11f, 6-Chloro-5-((3-chloro-4-fluorophenyl)amino)-2-(trifluoromethyl)-1H-benzo[d]imidazole-4,7-dione]	–
804 ± 91	O=C1C(NC2CCN(C(=O)c3ccc(Br)cc3)CC2)=C(Cl)C(=O)c2[nH]c(C(F)(F)F)nc21 [14f, 5-((1-(4-Bromobenzoyl)piperidin-4-yl)amino)-6-chloro-2-(trifluoromethyl)-1H-benzo[d]imidazole-4,7-dione]	–
1020 ± 111	O=C1C(Cl)=C(Nc2ccc(F)cc2)C(=O)c2[nH]c(C(F)(F)F)nc21 [11a, 6-Chloro-5-((4-fluorophenyl)amino)-2-(trifluoromethyl)-1H-benzo[d]imidazole-4,7-dione]	Metabolic Stability Rat (%) [1]: >99%; Metabolic Stability Mouse (%) [2]: 95.7 ± 17.2%; Metabolic Stability Human (%) [3]: 81.4 ± 1.9%
660 ± 113	O=C1C(Nc2ccc(F)cc2Cl)=C(Cl)C(=O)c2[nH]c(C(F)(F)F)nc21 [11e, 6-Chloro-5-((2-chloro-4-fluorophenyl)amino)-2-(trifluoromethyl)-1H-benzo[d]imidazole-4,7-dione]	–
481 ± 20	O=C1C(NC2CCN(C(=O)c3ccc(Cl)cc3)CC2)=C(Cl)C(=O)c2[nH]c(C(F)(F)F)nc21 [14e, 6-Chloro-5-((1-(4-chlorobenzoyl)piperidin-4-yl)amino)-2-(trifluoromethyl)-1H-benzo[d]imidazole-4,7-dione]	–
921 ± 117	CCC(=O)N1CCC(NC2=C(Cl)C(=O)c3[nH]c(C(F)(F)F)nc3C2=O)CC1 [14b, 6-Chloro-5-((1-propionylpiperidin-4-yl)amino)-2-(trifluoromethyl)-1H-benzo[d]imidazole-4,7-dione]	–
782 ± 139	O=C1C(Nc2ccc(Br)c(F)c2)=C(Cl)C(=O)c2[nH]c(C(F)(F)F)nc21 [11j, 5-((4-Bromo-3-fluorophenyl)amino)-6-chloro-2-(trifluoromethyl)-1H-benzo[d]imidazole-4,7-dione]	–
825 ± 70	O=C1C(Cl)=C(Nc2ccc(Cl)cc2)C(=O)c2[nH]c(C(F)(F)F)nc21 [11b, 6-Chloro-5-((4-chlorophenyl)amino)-2-(trifluoromethyl)-1H-benzo[d]imidazole-4,7-dione]	–
577 ± 66	O=C1C(NC2CCN(C(=O)c3ccc(Cl)c(Cl)c3)CC2)=C(Cl)C(=O)c2[nH]c(C(F)(F)F)nc21 [14g, 6-Chloro-5-((1-(3,4-dichlorobenzoyl)piperidin-4-yl)amino)-2-(trifluoromethyl)-1H-benzo[d]imidazole-4,7-dione]	–
> 10000	O=C1C(NC2CCN(C(=O)c3ccc(C(F)(F)F)cc3)CC2)=C(Cl)C(=O)c2[nH]c(C(F)(F)F)nc21 [14k, 6-Chloro-2-(trifluoromethyl)-5-((1-(4-(trifluoromethyl)benzoyl)piperidin-4-yl)amino)-1H-benzo[d]imidazole-4,7-dione]	–
1040 ± 221	O=C1C(Nc2ccc(F)c(Br)c2)=C(Cl)C(=O)c2[nH]c(C(F)(F)F)nc21 [11i, 5-((3-Bromo-4-fluorophenyl)amino)-6-chloro-2-(trifluoromethyl)-1H-benzo[d]imidazole-4,7-dione]	–
450 ± 59	O=C1C(NC2CCN(C(=O)c3ccc(F)cc3)CC2)=C(Cl)C(=O)c2[nH]c(C(F)(F)F)nc21 [14d, 6-Chloro-5-((1-(4-fluorobenzoyl)piperidin-4-yl)amino)-2-(trifluoromethyl)-1H-benzo[d]imidazole-4,7-dione]	–
4910 ± 821	Cc1nc2c([nH]1)C(=O)C(Cl)=C(Nc1ccc(F)cc1)C2=O [10a, 6-Chloro-5-((4-fluorophenyl)amino)-2-methyl-1H-benzo[d]imidazole-4,7-dione]	Metabolic Stability Rat (%) [1]: 26.2 ± 3.4%; Decrease of P2X3R antagonistic activity compared with KCB-77033 (hP2X3R): 4–5 fold; Metabolic Stability Mouse (%) [2]: 18.4 ± 2.7%; Metabolic Stability Human (%) [3]: 43.1 ± 4.7%
864 ± 112	O=C1C(NC2CCN(C(=O)c3ccccc3)CC2)=C(Cl)C(=O)c2[nH]c(C(F)(F)F)nc21 [14c, 5-((1-Benzoylpiperidin-4-yl)amino)-6-chloro-2-(trifluoromethyl)-1H-benzo[d]imidazole-4,7-dione]	–
808 ± 75	O=C1C(Nc2ccc(Cl)c(Cl)c2)=C(Cl)C(=O)c2[nH]c(C(F)(F)F)nc21 [11d, 6-Chloro-5-((3,4-dichlorophenyl)amino)-2-(trifluoromethyl)-1H-benzo[d]imidazole-4,7-dione]	–
526 ± 141	O=C1C(Nc2ccc(Cl)cc2F)=C(Cl)C(=O)c2[nH]c(C(F)(F)F)nc21 [11g, 6-Chloro-5-((4-chloro-2-fluorophenyl)amino)-2-(trifluoromethyl)-1H-benzo[d]imidazole-4,7-dione]	–
